In patent publication US20130029983A1, “AMINOTHIENOPYRIDAZINE INHIBITORS OF TAU ASSEMBLY” (priority 2009, published 2013):

How the values were obtained:
K18PL tau = target: T1, K18PL tau (Homo sapiens, UniProt P10636, P618L); assay: K18PL tau centrifugation (sedimentation) assay, SDS-PAGE densitometry; assay type: biochemical; settings: for Emax: SDS-PAGE of soluble and insoluble fractions after centrifugation, read-out: K18PL Sed. Assay, maximal percent inhibition of K18PL fibrillization
T1 construct: (K18PL; amino acids 244-369); made in house
Method in brief: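 Heparin-induced fibrillization of K18PL tau in sodium acetate buffer with test compound; mixtures were centrifuged and soluble versus insoluble K18PL quantified by SDS-PAGE densitometry. A repeat run centrifuged DMSO- and compound-treated mixtures for 30 min at time zero to remove pelletable material before incubation.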

[1] = Turbidimetric solubility in fibrillization buffer; assay type: physicochemical; settings: 100 mM NaOAc pH 7.0 fibrillization buffer, 1% DMSO
Protocol: Compounds were serially diluted in DMSO to achieve a 2.5 fold dilution series from 20 mM down 8 points to […] on a 384-well master plate (Costar 3672). Aliquots (2 μL) were transferred to a clear 96-well assay plate (Fisher 12-565-501) containing 198 μL fibrillization buffer (100 mM NaOAc pH 7.0) for a 100-fold dilution (200 μM down to 0.3 μM). The plate was incubated with agitation for 2.5 h, and the absorbance at 550, 600, 650 and 700 nm was measured on a Spectramax M5 spectrophotometer. DMSO (1%) in fibrillization buffer served as a control that was subtracted from each data point. The absorbances were averaged and the concentration at which the average absorbance rose above 0.03 AU was an indication of insoluble compound, with solubility limits reported as the previous concentration in the dilution series.

[2] = Brain and plasma drug levels 1 h after i.p. administration (LC-MS/MS); assay type: in vivo; settings: mice, 1 h after i.p. 5 mg/Kg
Protocol: Test compounds underwent preliminary evaluations of brain penetration, in which 5 mg/Kg of each compound was administered intraperitoneally (i.p.) to a group of three normal mice; drug levels in brain and plasma were determined at a single time-point (1 h) by LC-MS/MS using pre-validated calibration curves. […] However, both esters appeared to have relatively short half-lives in plasma, as indicated by the limited amount of parent drug detected after 1 h from administration of the compounds. […] CNDR-51362 was selected for full PK analysis in which brain and plasma drug levels were determined at six time points (i.e., 30 min, 1 h, 2 h, 4 h, 8 h, and 16 h). The results from this experiment, illustrated in FIG. 6A, confirmed that the total B/P exposure ratio over 16 h is 1.6. […] Finally, in order to investigate the potential for ATPZ congeners to be orally administered, we evaluated brain and plasma level of CNDR-51362 and CNDR-51349 after oral administration of 5 mg/Kg.
Brain tissue was homogenized in 10 mM ammonium acetate, pH 5.7 (1:2; w/v) using a handheld sonic homogenizer. Plasma was obtained from blood that was collected into a 1.5 mL tube containing 0.5M EDTA solution and subjected to centrifugation for 10 min. at 4500 g at 4° C. Aliquots (50 μL) of brain homogenate or plasma were mixed with 0.2 mL of acetonitrile, centrifuged at 15,000 g, and the resulting supernatants were used for subsequent LC-MS/MS analysis. The LC-MS/MS system was comprised of an Aquity HPLC and a TQ MS that was controlled using MassLynx software (Waters Corporation, Milford, Mass., USA). Compounds were detected using multiple reaction monitoring (MRM) of their specific collision-induced ion transitions. Samples (5 μL) were separated on an Aquity BEH C18 column (1.7 μm, 2.1×50 mm) at 35° C. Operation was in positive electrospray ionization mode, with mobile phase A of 0.1% (v/v) formic acid, and B of either acetonitrile or methanol with 0.1% (v/v) formic acid at a flow rate of 0.6 mL/min using a gradient from 5% to 95% B over two min., followed by wash and re-equilibration steps. The MS was operated with a desolvation temperature of 450° C. and a source temperature of 150° C. Desolvation and source nitrogen gas flows were 900 L/hr and 50 L/hr, respectively. Source and MS/MS voltages were optimized for each compound using the MassLynx auto tune utility. Standard curves were generated for each compound from brain homogenate and plasma samples that had compound added at 4, 40, 400 and 4000 ng/mL and extracted as above. Peak areas were plotted against concentration and a 1/x weighted linear regression curve was used to quantify the tissue-derived samples using the average peak area from triplicate injections.

T1 sequence (P10636 561-686 P618L): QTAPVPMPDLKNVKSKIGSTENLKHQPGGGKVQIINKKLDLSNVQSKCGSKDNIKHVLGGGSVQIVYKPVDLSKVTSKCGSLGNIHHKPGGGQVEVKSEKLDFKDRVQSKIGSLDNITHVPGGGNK

Emax (K18PL tau)	Water Solubility [1]	B/P, ratio between brain/plasma drug level [2]	Tau Cent. Assay % Soluble (K18PL tau; Table 3, K18PL tau centrifugation assay)	B/P, ratio between brain/plasma drug level ([2]; 5 mg/kg)	B/P, ratio between brain/plasma drug level ([2]; listed as CNDR-51346, 5 mg/kg)	SMILES
69%	32 µM	1.6				Nc1scc2c(C(=O)NC3CC3)nn(-c3ccc(Cl)cc3)c(=O)c12 [CNDR-51362, 5-Amino-3-(4-chlorophenyl)-N-cyclopropyl-4-oxo-3,4-dihydrothieno[3,4-d]pyridazine-1-carboxamide]
70%	13 µM		62%	3.3	comparatively higher B/P ratio	CCOC(=O)c1nn(-c2ccc(Cl)cc2)c(=O)c2c(N)scc12 [Compound 17, Ethyl 5-amino-3-(4-chlorophenyl)-4-oxo-3,4-dihydrothieno[3,4-d]pyridazine-1-carboxylate]
